What all share (type): functional, organism-based
One experiment deals with Fusarium oxysporum. The experiment can be described thus: Fungicidal activity against Fusarium oxysporum assessed as inhibition of mycelial growth.
The subject of another experiment is Colletotrichum truncatum. As to the kind of experiment: Fungicidal activity against Colletotrichum capsici assessed as inhibition of mycelial growth.
Experiment [1] concerns Fusarium graminearum. As to the kind of experiment: Fungicidal activity against Wind-type carbendazim-sensitive Fusarium graminearum isolate.
For another experiment, the system named is Sclerotinia sclerotiorum. As to the kind of experiment: Fungicidal activity against Sclerotinia sclerotiorum assessed as inhibition of mycelial growth.
Experiment [2] has as its system Pseudoperonospora cubensis. As to the kind of experiment: Fungicidal activity against Pseudoperonospora cubensis zoosporangia isolate obtained from downy mildew diseased cucumber plant assessed as reduction in mildew development measured after 7 to 10 days.
The next experiment concerns Botrytis cinerea. As to the kind of experiment: Fungicidal activity against Botryotinia fuckeliana assessed as inhibition of mycelial growth.
Another experiment concerns Phytophthora capsici. As to the kind of experiment: Fungicidal activity against Phytophthora capsici assessed as inhibition of mycelial growth.
The next experiment deals with Alternaria solani. The experiment can be described thus: Fungicidal activity against Alternaria solani assessed as inhibition of mycelial growth.
In the next experiment the test system is Pyricularia grisea. The experiment can be described thus: Fungicidal activity against Magnaporthe grisea assessed as inhibition of mycelial growth.
For another experiment, the system named is Fusarium verticillioides. The experiment can be described thus: Fungicidal activity against Fusarium verticillioides assessed as inhibition of mycelial growth.
The next experiment has as its system Dothiorella gregaria. The experiment can be described thus: Fungicidal activity against Dothiorella gregaria assessed as inhibition of mycelial growth.
The next experiment concerns Blumeria graminis. As to the kind of experiment: Fungicidal activity against Blumeria graminis infested wheat plant in greenhouse assessed as reduction in powdery mildew formation measured after 10 days. The following applies: 240 h.
For experiment [3], the system named is Fusarium graminearum. As to the kind of experiment: Fungicidal activity against compound-sensitive Fusarium graminearum isolate.

Values after ≈ are worked out from the molar mass of the structure shown.

In general, EC50 refers to the concentration giving half of the maximal effect.

Regarding `CCOC(=O)/C(C#N)=C(/N)c1ccccc1`, the EC50 in the experiment with Fusarium oxysporum worked out at 3.56 mg/L (≈ 16.5 µM); with Colletotrichum truncatum it was 28.2 mg/L (≈ 130 µM); in the experiment on Fusarium graminearum [1], 0.108 mg/L (≈ 0.499 µM); in the experiment with Sclerotinia sclerotiorum, 72.1 mg/L (≈ 333 µM); in [2], 12.7 mg/L (≈ 58.9 µM); in the experiment on Botrytis cinerea, 72.2 mg/L (≈ 334 µM). Further, the concentration giving a half-maximal response (EC50) was 111 mg/L (≈ 515 µM) in the experiment with Phytophthora capsici; 133 mg/L (≈ 616 µM) in the experiment with Alternaria solani; 77.1 mg/L (≈ 356 µM) in the experiment with Pyricularia grisea; 0.459 mg/L (≈ 2.12 µM) with Fusarium verticillioides; 39.7 mg/L (≈ 184 µM) in the experiment with Dothiorella gregaria; above 1000 mg/L in the experiment with Blumeria graminis. For the same molecule, a half-maximal response with Fusarium graminearum [3] (EC50) required 0.141 mg/L (≈ 0.652 µM).

The values above are taken from ChEMBL document CHEMBL3044797 (Crop Prot, 2008).
